# Values of other authors as cited in patent US8288428B2, “Compounds as cannabinoid receptor ligands” (Abbott Laboratories, priority 2009, dated 2012).
# Experiments:
# [1] = system: apolipoprotein E knockout mice; conditions: cited from earlier work
# [2] = system: ovariectomy-induced bone loss; conditions: mice, model for post-menopausal osteoporosis; cited from earlier work
# osteoclast activity = conditions: cited from earlier work
# microglial activation = conditions: in vitro; cited from earlier work
substance,measurement,setting,value
SR144528,inhibition of THC effects on atherosclerotic lesions,[1],inhibited
same,effect on ovariectomy-induced bone loss,[2],reverse
same,effect on osteoclast activity,osteoclast activity,inhibit
same,blockade of JWH-133 effects on β-amyloid-induced microglial activation and neurotoxicity,microglial activation,blocked
